Laboratory results published in patent US20250034586A1, “METHOD FOR EDITING BANANA GENES” (Tropic Biosciences UK Limited, priority 2021, published 2025).

Experiments:
ACO1, Ma01_g11540 = test: Trait co-editing in selected embryos (PBE #3); assay type: cell-based, banana; conditions: G418 selection
Experimental: (§1) We transformed ECS as described previously in Example 6, using the new co-editing plasmids detailed in Table 11 above. Embryos were regenerated as detailed previously, either on media without selection, with 25 mg/L G418, 25 μg/L CSF or 50 μg/L CSF. Initial genotyping of all plasmids tested:
(§2) • All with CsVMV-rAPOBEC1 CBE (rAPOBEC+nCas9 (D10A) PBE from Zong et al. 2017*) and nosP-NptII • pMol_0925 (sgGFP-pNOS::Kan::tOCS-pCsVMV::nCas9PBE1::tg7-Dummy-pTaU6::sg1GFP_58-pTaU6::sg2GFP_59) • pMol_0934 (sgGFP, sgALS1-pNOS::Kan::tOCS-pCsVMV::nCas9PBE1::tg7-taU6::MaALS1sg2_2021-pTaU6::sg1GFP_58-pTaU6::sg2GFP_59) • pMol_0935 (sgGFP, sgALS2-pNOS::Kan::tOCS-pCsVMV::nCas9PBE1::tg7-taU6::MaALS2sg2_2023-pTaU6::sg1GFP_58-pTaU6::sg2GFP_59) • pMol_0926 (sgPPO2, sgALS1-pNOS::Kan::tOCS-pCsVMV::nCas9PBE1::tg7-taU6::MaALS1sg2_2021-pTaU6::sg1PPO2_2961-pTaU6::sg2PPO2_2962-pTaU6::sg3PPO2_2963) • pMol_0927 (sgPPO2, sgALS1-pNOS::Kan::tOCS-pCsVMV::nCas9PBE1::tg7-taU6::MaALS1sg2_2021-pTaU6::sg3PPO2_2963-pTaU6::sg4PPO2_2964) • pMol_0928 (sgACO1, sgALS1-pNOS::Kan::tOCS-pCsVMV::nCas9PBE1::tg7-taU6::MaALS1sg2_2021-pTaU6::sg1ACO1_2965-pTaU6::sg2ACO1_2966-pTaU6::sg3ACO1_2967) • pMol_0929 (sgPPO2, sgALS2-pNOS::Kan::tOCS-pCsVMV::nCas9PBE1::tg7-taU6::MaALS2sg2_2023-pTaU6::sg1PPO2_2961-pTaU6::sg2PPO2_2962-pTaU6::sg3PPO2_2963) • pMol_0930 (sgPPO2, sgALS2-pNOS::Kan::tOCS-pCsVMV::nCas9PBE1::tg7-taU6::MaALS2sg2_2023-pTaU6::sg3PPO2_2963-pTaU6::sg4PPO2_2964) • pMol_0931 (sgACO1, sgALS2-pNOS::Kan::tOCS-pCsVMV::nCas9PBE1::tg7-taU6::MaALS2sg2_2023-pTaU6::sg1ACO1_2965-pTaU6::sg2ACO1_2966-pTaU6::sg3ACO1_2967) ECS were left to ‘recover’ after transformation for 1 week in CS+cefo 300 mg/L. We regenerated embryos in 4 different conditions: • 1. No selection • 2. Stable G418 selection (in EDM only 2-3 months) from PBE #3 only (PBE #1/2 plasmids only have mCherry, not NptII) • 3. 25 μg/L chlorsulfuron (in EDM only 2-3 months) • 4. 50 μg/L chlorsulfuron (in EDM only 2-3 months)
(§3) gDNA from embryos and plantlets was extracted and qPCR was used to test for the presence of integrated tDNA in the plant genome. Three independent qPCRs were run on each sample with different sets of primers (listed below) spanning the tDNA, ranging from the left to right border. An additional qPCR was run on an endogenous banana gene (actin) for normalisation of Ct values. All qPCRs were run on the LightCycler® 96 System (Roche) using PowerUp™ SYBR® Green Master Mix (Thermo Fisher Scientific™).
(§4) For edit validation, amplicons for each target gene (als1, als2, ppo2, aco1) were made using Q5® High-Fidelity 2× Master Mix (New England Biolabs, NEB) using reaction settings listed below. PCR products were purified using Monarch® PCR & DNA Cleanup Kit (NEB) according to manufacturer's specifications. The amplicons were after validated by Sanger sequencing.

PPO2, Ma07_g03540 = test: Trait co-editing in selected embryos (PBE #3); assay type: cell-based, banana; conditions: G418 selection
Experimental: as §1, §2, §3, §4

[1] = system: banana embryos or leaf material; test: Comparison of selection using ALS inhibitor, G418 or hygromycin (genotyping of embryos or leaf material); assay type: cell-based; conditions: embryos
Text: In every case, regenerated material was transformed with constructs containing T-DNA that would generate resistance in positive transformants.

CN[C@@H]1[C@@H](O)[C@@H](O[C@@H]2[C@@H](O)[C@H](O[C@H]3O[C@H]([C@@H](C)O)[C@@H](O)[C@H](O)[C@H]3N)[C@@H](N)C[C@H]2N)OC[C@]1(C)O [Plasmid G418]
Percentage edited ACO1 embryos (ACO1, Ma01_g11540): 33.33 | ACO1 edited embryos total (ACO1, Ma01_g11540; 6 embryos tested): 2 | Percentage edited PPO2 embryos (PPO2, Ma07_g03540): 31.25 | PPO2 edited embryos total (PPO2, Ma07_g03540; 16 embryos tested): 5 | Editing frequency ([1]; stable selection): 17/28 = 60.7% | Transgenic frequency ([1]; stable selection): 18/28 = 64.3% | Editing frequency ([1]; transient selection): 35/867 = 4.0% | Non-transgenic edited ([1]; transient selection): 0/774 = 0% | Transgenic frequency ([1]; transient selection): 95/943 = 10.1%
